Reference: ChEMBL document CHEMBL1201862, “PubChem BioAssay data set” (2004)
The source made the active and inactive calls.

Columns and labels:
Coagulation factor XII = molecular target: T1, Coagulation factor XII (Homo sapiens, UniProt P00748); assay type: functional;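 also: activated factor XIIa alpha cleaving a fluorogenic AMC peptide substrate; inhibitor potency from loss of enzyme activity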
T1 sequence (P00748 whole entry): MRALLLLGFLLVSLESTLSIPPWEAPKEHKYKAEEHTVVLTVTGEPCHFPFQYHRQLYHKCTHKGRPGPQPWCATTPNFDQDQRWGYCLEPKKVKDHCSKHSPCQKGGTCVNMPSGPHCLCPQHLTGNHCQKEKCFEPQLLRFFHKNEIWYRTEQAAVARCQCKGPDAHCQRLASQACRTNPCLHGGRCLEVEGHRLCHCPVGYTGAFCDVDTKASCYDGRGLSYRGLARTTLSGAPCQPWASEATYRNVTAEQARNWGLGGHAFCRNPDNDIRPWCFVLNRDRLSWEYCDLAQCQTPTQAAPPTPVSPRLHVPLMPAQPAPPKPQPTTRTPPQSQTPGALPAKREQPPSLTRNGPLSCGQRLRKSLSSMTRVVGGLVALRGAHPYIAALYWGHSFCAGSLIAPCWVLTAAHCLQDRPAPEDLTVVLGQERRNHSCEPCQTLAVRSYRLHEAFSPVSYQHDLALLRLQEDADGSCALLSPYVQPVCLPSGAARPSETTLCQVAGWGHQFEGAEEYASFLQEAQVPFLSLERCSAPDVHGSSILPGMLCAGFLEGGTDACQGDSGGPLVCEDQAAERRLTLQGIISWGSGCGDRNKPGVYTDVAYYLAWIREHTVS

cells = assay type: functional
[1] = molecular target: T2, Neuropeptides B/W receptor type 1 (Homo sapiens, UniProt P48145); test: Fluorescence-based dose response cell-based high throughput screening assay to identify antagonists of the G-protein coupled receptor 7 (GPR7). [Related pubchem assays: 1952 (Screening assay (GPR7 antagonists).), 1880 (Summary AID.)]; assay type: functional
T2 sequence (P48145 whole entry): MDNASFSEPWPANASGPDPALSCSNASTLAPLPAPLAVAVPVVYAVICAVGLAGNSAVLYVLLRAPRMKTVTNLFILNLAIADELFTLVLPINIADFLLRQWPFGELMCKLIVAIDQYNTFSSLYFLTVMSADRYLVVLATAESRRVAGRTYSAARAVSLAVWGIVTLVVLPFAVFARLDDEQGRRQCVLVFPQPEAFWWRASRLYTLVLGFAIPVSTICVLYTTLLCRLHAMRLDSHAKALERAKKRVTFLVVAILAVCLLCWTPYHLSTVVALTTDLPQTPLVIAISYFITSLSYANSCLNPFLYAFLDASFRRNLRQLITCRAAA

[2] = molecular target: Melanin-concentrating hormone receptor 1 (Homo sapiens, UniProt Q99705); test: Fluorescence-based counterscreen for antagonists of the G-protein coupled receptor 7 (GPR7): cell-based high throughput dose response assay to identify antagonists of the melanin-concentrating hormone receptor 1 (MCHR1).; assay type: functional
Sequence of Melanin-concentrating hormone receptor 1 (Q99705 whole entry): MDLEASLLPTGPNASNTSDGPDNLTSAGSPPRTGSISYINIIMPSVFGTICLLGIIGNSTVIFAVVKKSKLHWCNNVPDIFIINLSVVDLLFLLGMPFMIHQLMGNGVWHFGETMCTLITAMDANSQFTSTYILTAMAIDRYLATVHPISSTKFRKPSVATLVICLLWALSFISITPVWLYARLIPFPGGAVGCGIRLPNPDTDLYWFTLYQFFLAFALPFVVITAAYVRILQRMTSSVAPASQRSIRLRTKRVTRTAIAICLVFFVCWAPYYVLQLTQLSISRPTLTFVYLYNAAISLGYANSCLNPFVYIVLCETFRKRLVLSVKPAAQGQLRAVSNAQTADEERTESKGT

Cytochrome P450 1A2 = molecular target: T3, Cytochrome P450 1A2 (Homo sapiens, UniProt P05177);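 also: PubChem cytochrome P450 panel assay, CYP1A2 panel member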
T3 sequence (P05177 whole entry): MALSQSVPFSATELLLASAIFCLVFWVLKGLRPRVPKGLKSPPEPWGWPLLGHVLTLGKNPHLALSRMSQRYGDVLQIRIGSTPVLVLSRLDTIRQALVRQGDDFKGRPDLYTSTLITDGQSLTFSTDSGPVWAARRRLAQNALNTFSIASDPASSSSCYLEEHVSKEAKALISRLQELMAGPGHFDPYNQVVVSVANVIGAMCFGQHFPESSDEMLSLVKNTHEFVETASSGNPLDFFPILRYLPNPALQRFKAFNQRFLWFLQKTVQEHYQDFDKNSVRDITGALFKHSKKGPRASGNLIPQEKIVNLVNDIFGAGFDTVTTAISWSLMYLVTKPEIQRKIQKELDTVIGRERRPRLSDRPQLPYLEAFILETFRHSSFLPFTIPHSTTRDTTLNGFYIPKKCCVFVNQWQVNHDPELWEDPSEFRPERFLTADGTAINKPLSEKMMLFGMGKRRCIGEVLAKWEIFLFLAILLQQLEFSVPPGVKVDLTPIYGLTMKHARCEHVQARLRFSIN

Cytochrome P450 3A4 = Cytochrome P450 3A4 (Homo sapiens, UniProt P08684);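 also: CYP3A4 tested as one member of a cytochrome P450 panel screen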
Sequence of Cytochrome P450 3A4 (P08684 whole entry): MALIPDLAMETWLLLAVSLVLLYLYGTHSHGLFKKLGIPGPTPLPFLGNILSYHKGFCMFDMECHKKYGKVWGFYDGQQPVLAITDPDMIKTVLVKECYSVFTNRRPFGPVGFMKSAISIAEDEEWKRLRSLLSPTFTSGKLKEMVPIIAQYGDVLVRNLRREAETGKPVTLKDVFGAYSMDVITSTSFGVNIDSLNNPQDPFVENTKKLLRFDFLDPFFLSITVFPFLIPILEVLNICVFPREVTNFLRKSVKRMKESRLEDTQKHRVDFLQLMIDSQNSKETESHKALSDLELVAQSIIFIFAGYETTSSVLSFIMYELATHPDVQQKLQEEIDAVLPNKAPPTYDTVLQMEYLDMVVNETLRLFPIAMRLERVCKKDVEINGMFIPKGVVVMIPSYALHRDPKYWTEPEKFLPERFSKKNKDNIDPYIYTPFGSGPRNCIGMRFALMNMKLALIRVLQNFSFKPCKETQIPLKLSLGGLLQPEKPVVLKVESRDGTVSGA

[3] = inhibitors of firefly luciferase expression or activity, dose response, H4 neuroglioma cells, luminescence (AID 1990); assay type: functional, cell-based
[4] = Luminescence Cell-Based Dose Response HTS to Identify Inhibitors of 5'UTR Stem-Loop Driven Prion Protein mRNA Translation in H4 Neuroglioblastoma Cells. [Related pubchem assays: 1827 (Project Summary), 1813 (Primary HTS)]; assay type: functional
[5] = inhibitors of SNCA 5'UTR-driven reporter translation, confirmation, H4 neuroglioma cells, luminescence (AID 1988); assay type: functional, cell-based
[6] = molecular target: T4, Short transient receptor potential channel 4 (Mus musculus, UniProt Q9QUQ5); test: mouse TRPC4 channel inhibitors, dose response, cell-based, HEK293 TRPC4/mu-opioid, Fluo-4 calcium (AID 434942); assay type: functional;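 also: potency of inhibitors blocking the TRPC4 calcium response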
T4 sequence (Q9QUQ5 whole entry): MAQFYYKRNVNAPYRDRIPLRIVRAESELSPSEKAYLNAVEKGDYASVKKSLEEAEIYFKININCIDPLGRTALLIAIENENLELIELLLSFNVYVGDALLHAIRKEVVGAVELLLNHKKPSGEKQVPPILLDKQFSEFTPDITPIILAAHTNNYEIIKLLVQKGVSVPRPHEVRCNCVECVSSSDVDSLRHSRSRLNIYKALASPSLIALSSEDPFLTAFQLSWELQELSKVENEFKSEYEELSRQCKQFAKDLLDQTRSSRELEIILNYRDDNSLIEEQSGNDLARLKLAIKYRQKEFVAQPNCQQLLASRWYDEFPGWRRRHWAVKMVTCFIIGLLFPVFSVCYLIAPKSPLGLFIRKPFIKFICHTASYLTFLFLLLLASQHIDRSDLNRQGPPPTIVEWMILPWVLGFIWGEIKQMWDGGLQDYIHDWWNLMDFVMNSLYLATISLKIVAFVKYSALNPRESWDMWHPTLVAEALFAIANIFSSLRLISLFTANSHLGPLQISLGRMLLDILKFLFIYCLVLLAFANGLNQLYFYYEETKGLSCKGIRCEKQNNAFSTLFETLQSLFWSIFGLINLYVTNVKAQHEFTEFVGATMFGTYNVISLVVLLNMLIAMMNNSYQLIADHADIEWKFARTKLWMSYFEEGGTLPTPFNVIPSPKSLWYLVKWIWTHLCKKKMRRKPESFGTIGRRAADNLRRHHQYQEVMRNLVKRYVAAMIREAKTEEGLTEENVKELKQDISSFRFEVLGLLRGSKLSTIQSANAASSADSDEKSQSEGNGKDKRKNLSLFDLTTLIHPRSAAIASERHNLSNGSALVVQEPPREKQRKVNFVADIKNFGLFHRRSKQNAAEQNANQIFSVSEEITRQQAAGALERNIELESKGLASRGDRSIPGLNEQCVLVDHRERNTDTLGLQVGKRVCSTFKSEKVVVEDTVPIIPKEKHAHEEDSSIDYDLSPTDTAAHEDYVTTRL

[7] = molecular target: T4, Short transient receptor potential channel 4; test: mouse TRPC4 channel activators, dose response, cell-based, HEK293 TRPC4/mu-opioid, Fluo-4 calcium (AID 434937); assay type: functional
[8] = Shn3 3'UTR reporter inhibitors, dose response, cell-based, Clone20 osteoblasts, firefly luciferase, cherry-picked (AID 624132); assay type: functional;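 also: firefly luciferase luminescence from reporter carrying the Shn3 3'UTR in osteoblasts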
[9] = HepG2 cell cytotoxicity, dose response, cytotoxicity control for Shn3 inhibitor project, CellTiter-Glo, cherry-picked (AID 624134); assay type: functional, cell-based
[10] = control 3'UTR Renilla luciferase suppression, dose response, counter-screen for Shn3 inhibitor project, cell-based, Clone20-Shn3RL, cherry-picked (AID 624133); assay type: functional
Protein Wnt-3a = Protein Wnt-3a (Mus musculus, UniProt P27467); test: Wnt3a-driven reporter signaling inhibition, dose response, selectivity assay for Gli-SUFU antagonist project, Wnt-LIGHT cells, luminescence (AID 651570); assay type: functional; settings: read-out: IC50_Mean;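 also: Wnt-LIGHT reporter cells stimulated with conditioned medium from Wnt3a-producing cells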
Sequence of Protein Wnt-3a (P27467 whole entry): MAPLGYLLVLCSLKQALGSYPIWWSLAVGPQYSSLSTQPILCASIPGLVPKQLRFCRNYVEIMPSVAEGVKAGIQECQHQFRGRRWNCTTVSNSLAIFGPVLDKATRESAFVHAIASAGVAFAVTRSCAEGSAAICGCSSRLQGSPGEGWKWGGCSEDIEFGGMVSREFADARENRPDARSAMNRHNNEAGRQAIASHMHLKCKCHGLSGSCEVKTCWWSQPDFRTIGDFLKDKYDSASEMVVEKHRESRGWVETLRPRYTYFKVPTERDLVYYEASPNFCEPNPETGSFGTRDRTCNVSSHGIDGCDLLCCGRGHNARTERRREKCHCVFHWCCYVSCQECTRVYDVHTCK

HEK293 [11] = test: NOD1 signaling inhibitors, primary screen, cell-based, luminescence, uHTS (AID 1578); assay type: functional; settings: Homo sapiens
HEK293 [12] = test: cells; assay type: functional, cell-based; settings: Homo sapiens
HEK293 [13] = test: cells; assay type: functional, cell-based; settings: Homo sapiens; remark: listed apart in the source
[14] = molecular target: Nucleotide-binding oligomerization domain-containing protein 2 (Homo sapiens, UniProt Q9HC29); test: NOD2 signaling inhibitors, cell-based, luminescence, uHTS, HEK293 (AID 1566); assay type: functional
Sequence of Nucleotide-binding oligomerization domain-containing protein 2 (Q9HC29 whole entry, the tested form may be a part): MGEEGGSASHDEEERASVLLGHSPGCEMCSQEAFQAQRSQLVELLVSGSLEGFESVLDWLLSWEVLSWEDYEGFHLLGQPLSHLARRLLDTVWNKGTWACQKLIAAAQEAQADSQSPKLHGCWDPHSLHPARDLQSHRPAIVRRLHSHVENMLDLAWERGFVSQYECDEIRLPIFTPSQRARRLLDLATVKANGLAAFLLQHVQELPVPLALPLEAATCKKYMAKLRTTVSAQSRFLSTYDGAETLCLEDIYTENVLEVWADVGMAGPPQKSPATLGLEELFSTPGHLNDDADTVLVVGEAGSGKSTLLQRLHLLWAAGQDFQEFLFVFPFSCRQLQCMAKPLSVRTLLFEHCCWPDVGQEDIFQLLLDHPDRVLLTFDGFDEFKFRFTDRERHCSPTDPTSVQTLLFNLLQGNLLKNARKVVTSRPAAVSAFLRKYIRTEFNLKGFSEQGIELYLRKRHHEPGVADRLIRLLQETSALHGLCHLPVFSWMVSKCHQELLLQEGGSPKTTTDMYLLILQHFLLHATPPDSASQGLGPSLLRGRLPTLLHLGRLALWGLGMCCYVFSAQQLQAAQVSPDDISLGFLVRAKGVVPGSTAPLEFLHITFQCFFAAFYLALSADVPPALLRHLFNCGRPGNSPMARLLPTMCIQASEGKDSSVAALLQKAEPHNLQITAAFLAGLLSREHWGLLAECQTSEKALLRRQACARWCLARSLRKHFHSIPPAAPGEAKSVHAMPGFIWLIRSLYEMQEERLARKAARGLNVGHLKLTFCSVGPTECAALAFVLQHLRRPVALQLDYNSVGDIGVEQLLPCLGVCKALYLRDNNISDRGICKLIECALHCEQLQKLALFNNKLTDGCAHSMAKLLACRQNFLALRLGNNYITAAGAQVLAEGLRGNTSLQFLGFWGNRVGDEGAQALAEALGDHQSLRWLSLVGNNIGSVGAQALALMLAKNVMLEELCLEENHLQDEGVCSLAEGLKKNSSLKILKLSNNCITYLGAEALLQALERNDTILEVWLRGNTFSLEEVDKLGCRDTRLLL

HEK293 [15] = test: NOD2 signaling inhibitors in MDP-stimulated cells, cell-based, uHTS, luminescence (AID 2001); assay type: functional; settings: Homo sapiens
HEK293 [16] = test: cells; assay type: functional, cell-based; settings: Homo sapiens; remark: listed apart in the source
[17] = Luminescence Cell-Based Dose Retest to Confirm Inhibitors of Cancer Stem Cells. [Related pubchem assays (depositor defined):AID2717, AID2721]; assay type: functional; settings: Homo sapiens
INS1 = test: beta cell apoptosis inhibitors, cytokine rescue, dose response, luminescence, retest (AID 449756); assay type: functional, cell-based; settings: Rattus norvegicus;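 also: cell death triggered by IL-1 beta plus TNF-alpha plus IFN-gamma mixture; protective hits raise ATP signal compared with cytokine alone wells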
[18] = molecular target: Glyceraldehyde-3-phosphate dehydrogenase (Homo sapiens, UniProt P04406)
Sequence of Glyceraldehyde-3-phosphate dehydrogenase (P04406 whole entry): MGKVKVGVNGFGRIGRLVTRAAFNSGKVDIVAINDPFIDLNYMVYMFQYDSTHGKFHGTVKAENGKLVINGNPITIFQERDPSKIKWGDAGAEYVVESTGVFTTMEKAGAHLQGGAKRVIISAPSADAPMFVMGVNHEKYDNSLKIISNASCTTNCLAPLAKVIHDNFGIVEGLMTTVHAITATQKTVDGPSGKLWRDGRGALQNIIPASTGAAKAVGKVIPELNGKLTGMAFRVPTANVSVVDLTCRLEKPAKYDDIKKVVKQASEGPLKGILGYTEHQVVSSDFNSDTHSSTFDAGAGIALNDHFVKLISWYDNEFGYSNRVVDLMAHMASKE

[19] = molecular target: T5, Alkaline phosphatase, tissue-nonspecific isozyme (Homo sapiens, UniProt P05186); test: human TNAP enzyme inhibitors, SAR follow-up, biochemical, luminescent, dose response (AID 1056)
T5 sequence (P05186 whole entry): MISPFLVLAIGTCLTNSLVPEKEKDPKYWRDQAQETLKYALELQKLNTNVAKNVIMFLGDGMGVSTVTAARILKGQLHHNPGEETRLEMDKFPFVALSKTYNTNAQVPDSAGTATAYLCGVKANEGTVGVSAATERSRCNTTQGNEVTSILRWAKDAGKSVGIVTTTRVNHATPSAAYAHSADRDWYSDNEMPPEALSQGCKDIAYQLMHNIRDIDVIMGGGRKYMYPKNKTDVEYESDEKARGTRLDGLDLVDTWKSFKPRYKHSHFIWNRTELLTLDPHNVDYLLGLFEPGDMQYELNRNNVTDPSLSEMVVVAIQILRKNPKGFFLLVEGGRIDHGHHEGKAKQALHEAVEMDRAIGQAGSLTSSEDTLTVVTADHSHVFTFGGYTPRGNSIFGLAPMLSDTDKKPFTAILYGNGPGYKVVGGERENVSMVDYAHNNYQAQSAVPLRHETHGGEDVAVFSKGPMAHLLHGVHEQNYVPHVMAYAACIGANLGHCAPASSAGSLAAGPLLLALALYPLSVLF

[20] = microbe, parasite or virus in culture; assay type: functional; settings: Mycobacterium tuberculosis
[21] = THP-1 cell cytotoxicity, dose response, cytotoxicity control for non-replicating M. tuberculosis project (AID 489025); assay type: functional
[22] = Vero E6 cell cytotoxicity, dose response, cytotoxicity control for non-replicating M. tuberculosis project, secondary assay (AID 492998); assay type: functional, VeroE6; settings: Vero C1008

O=[N+]([O-])c1cncc([N+](=O)[O-])c1Nc1ccccc1Cl
IC50 (Coagulation factor XII): > 50 µM (inactive)
IC50 (cells): 8.86 µM (active)

CCc1ccc(N(C(=O)c2csnn2)C(C(=O)NC2CCCCC2)c2ccncc2)cc1 (stereo not given)
IC50 [1]: > 43.8 µM (not active)
IC50 [2]: > 43.8 µM (not active)

O=C(Nc1ccccc1)N1CCC2(CC1)CCN(C(=O)c1cccc(F)c1)CC2
AC50 (Cytochrome P450 1A2): 10 µM (inconclusive)
AC50 (Cytochrome P450 3A4): inconclusive

COc1ccccc1NS(=O)(=O)c1cccc(C(=O)NC2CCN(Cc3ccccc3)CC2)c1
EC50 [3]: > 120 µM (not active)
EC50 [4]: > 120 µM (not active)
EC50 [5]: > 120 µM (not active)
EC50 [6]: 0.376 µM (active)
EC50 [7]: 0.944 µM (active)
AC50 [8]: 1.95 µM (active)
AC50 [9]: 0.52 µM (active)
AC50 [10]: 1.8 µM (active)
IC50 (Protein Wnt-3a): 4.3 µM (active)

Cn1cccc1C(=O)N1CCC2(CC1)CCN(C(c1ccccc1)c1ccccc1)CC2
AC50 (Cytochrome P450 1A2): 5.01 µM (inconclusive)
AC50 (Cytochrome P450 3A4): inconclusive

CC(C)(C)C1CCC2(CC1)C(C#N)=C(SCC(=O)NC1CCCCC1)NC(=O)C2C#N (stereo not given)
EC50 (HEK293 [11]): 6.58 µM (active)
IC50 (HEK293 [12]): 9.32 µM (active)
IC50 (HEK293 [13]): 13.6 µM (active)
EC50 [14]: 17.6 µM (active)
IC50 (HEK293 [15]): 9.18 µM (active)
IC50 (HEK293 [16]): > 20 µM (inactive)
AC50 [17]: 6.34 µM (active)
AC50 (INS1): 8.73 µM (active)

O=c1c(-c2ccc(Cl)cc2)nc2cnc(N3CCOCC3)nc2n1CCc1ccccc1
AC50 (Cytochrome P450 1A2): 2 µM (inconclusive)
AC50 (Cytochrome P450 3A4): inconclusive

COC(=O)c1ccc(Nc2nc(C)cc(=O)[nH]2)cc1
IC50 (Coagulation factor XII): > 50 µM (inactive)

O=C(Nc1ccccc1Cl)C1CC(=O)N(c2ccccc2)C1 (stereo not given)
IC50 (Coagulation factor XII): > 50 µM (inactive)

COc1ccc(S(=O)(=O)Nc2ccc3ccccc3c2)cc1OC
IC50 [18]: > 100 µM (not active)
IC50 [19]: > 100 µM (inactive)

N#Cc1cccc(NC(=O)N2CCC3(CC2)CCN(C(=O)c2cccc(F)c2)CC3)c1
AC50 (Cytochrome P450 3A4): inconclusive

CCCCn1c(=O)c(C(=O)Nc2ncccc2C)c(O)c2ccccc21
CC50 [20]: 29.3 µM (active)
CC50 [21]: > 40 µM (active)
CC50 [22]: > 20 µM (active)
IC50 (cells): 17.3 µM (active)

CC1CCCN(CCOCCOc2ccccc2-c2ccccc2)C1 (stereo not given)
EC50 [6]: 0.335 µM (active)
EC50 [7]: 0.421 µM (active)

COc1ccc2c(c1)CCc1c(C(=O)NCc3ccc(F)cc3)noc1-2
IC50 (Coagulation factor XII): 3.61 µM (active)

CCOc1ccc(C(C)(C)C)cc1S(=O)(=O)Nc1cccnc1
IC50 [19]: 12.5 µM (active)
